Reference: patent US7598245B2 (Vertex Pharmaceuticals Incorporated, priority 2003, dated 2009)

Columns and labels:
Assay type in all cases: biochemical
[1] = target: T1, human Src kinase (Homo sapiens, UniProt P12931); assay: Src inhibition assay B: spectrophotometric (uv-vis) coupled enzyme assay; conditions: 100 μM ATP
T1 construct: 25 nM of recombinant human Src kinase
Protocol: The compounds are evaluated as inhibitors of human Src kinase using either a radioactivity-based assay or spectrophotometric assay.
Src Inhibition Assay B: Spectrophotometric Assay
The ADP produced from ATP by the human recombinant Src kinase-catalyzed phosphorylation of poly Glu-Tyr substrate is quantified using a coupled enzyme assay [Fox et al. Protein Sci. 1998, 7, 2249]. In this assay one molecule of NADH is oxidised to NAD for every molecule of ADP produced in the kinase reaction. The disappearance of NADH is conveniently followed at 340 nm.
The following are the final concentrations of the assay components: 0.025 M HEPES (pH 7.6), 10 mM MgCl2, 2 mM DTT, 0.25 mg/ml poly Glu-Tyr, and 25 nM of recombinant human Src kinase. Final concentrations of the components of the coupled enzyme system are 2.5 mM phosphoenolpyruvate, 200 μM NADH, 30 μg/ml pyruvate kinase and 10 μg/ml lactate dehydrogenase.
In a typical assay, all the reaction components with the exception of ATP are pre-mixed and aliquoted into assay plate wells. Inhibitors dissolved in DMSO are added to the wells to give a final DMSO concentration of 2.5%. The assay plate is incubated at 30° C. for 10 min before initiating the reaction with 100 μM ATP. The absorbance change at 340 nm with time, the rate of the reaction, is monitored on a molecular devices plate reader. The data of rate as a function of the inhibitor concentration is fitted to competitive inhibition kinetics model to get the Ki for the compound.

[2] = target: KDR (Homo sapiens, UniProt P35968); assay: Inhibition of KDR, coupled enzyme assay; conditions: 300 μM ATP, 37° C.
Protocol: Compounds were screened for their ability to inhibit KDR using a standard coupled enzyme assay (Fox et al., Protein Sci., (1998) 7, 2249). Assays were carried out in a mixture of 200 mM HEPES 7.5, 10 mM MgCl2, 25 mM NaCl, 1 mM DTT and 1.5% DMSO. Final substrate concentrations in the assay were 300 μM ATP (Sigma Chemicals) and 10 μM poly E4Y (Sigma). Assays were carried out at 37° C. and 30 nM KDR. Final concentrations of the components of the coupled enzyme system were 2.5 mM phosphoenolpyruvate, 200 μM NADH, 30 μg/ML pyruvate kinase and 10 μg/ml lactate dehydrogenase.
An assay stock buffer solution was prepared containing all of the reagents listed above, with the exception of ATP and the test compound of interest. 177 μl of the stock solution was placed in a 96 well plate followed by addition of 3 μl of 2 mM DMSO stock containing the test compound (final compound concentration 30 μM). The plate was preincubated for about 10 minutes at 37° C. and the reaction initiated by addition of 20 μl of ATP (final concentration 300 μM). Rates of reaction were obtained using a Molecular Devices plate reader (Sunnyvale, Calif.) over a 5 minute read time at 37° C.

[3] = target: T2, JAK-3 (Homo sapiens, UniProt P52333); assay: JAK3 inhibition assay (ELISA, Poly (Glu, Ala, Tyr) coated plates); conditions: 2 μM ATP
T2 sequence (P52333 1-1124): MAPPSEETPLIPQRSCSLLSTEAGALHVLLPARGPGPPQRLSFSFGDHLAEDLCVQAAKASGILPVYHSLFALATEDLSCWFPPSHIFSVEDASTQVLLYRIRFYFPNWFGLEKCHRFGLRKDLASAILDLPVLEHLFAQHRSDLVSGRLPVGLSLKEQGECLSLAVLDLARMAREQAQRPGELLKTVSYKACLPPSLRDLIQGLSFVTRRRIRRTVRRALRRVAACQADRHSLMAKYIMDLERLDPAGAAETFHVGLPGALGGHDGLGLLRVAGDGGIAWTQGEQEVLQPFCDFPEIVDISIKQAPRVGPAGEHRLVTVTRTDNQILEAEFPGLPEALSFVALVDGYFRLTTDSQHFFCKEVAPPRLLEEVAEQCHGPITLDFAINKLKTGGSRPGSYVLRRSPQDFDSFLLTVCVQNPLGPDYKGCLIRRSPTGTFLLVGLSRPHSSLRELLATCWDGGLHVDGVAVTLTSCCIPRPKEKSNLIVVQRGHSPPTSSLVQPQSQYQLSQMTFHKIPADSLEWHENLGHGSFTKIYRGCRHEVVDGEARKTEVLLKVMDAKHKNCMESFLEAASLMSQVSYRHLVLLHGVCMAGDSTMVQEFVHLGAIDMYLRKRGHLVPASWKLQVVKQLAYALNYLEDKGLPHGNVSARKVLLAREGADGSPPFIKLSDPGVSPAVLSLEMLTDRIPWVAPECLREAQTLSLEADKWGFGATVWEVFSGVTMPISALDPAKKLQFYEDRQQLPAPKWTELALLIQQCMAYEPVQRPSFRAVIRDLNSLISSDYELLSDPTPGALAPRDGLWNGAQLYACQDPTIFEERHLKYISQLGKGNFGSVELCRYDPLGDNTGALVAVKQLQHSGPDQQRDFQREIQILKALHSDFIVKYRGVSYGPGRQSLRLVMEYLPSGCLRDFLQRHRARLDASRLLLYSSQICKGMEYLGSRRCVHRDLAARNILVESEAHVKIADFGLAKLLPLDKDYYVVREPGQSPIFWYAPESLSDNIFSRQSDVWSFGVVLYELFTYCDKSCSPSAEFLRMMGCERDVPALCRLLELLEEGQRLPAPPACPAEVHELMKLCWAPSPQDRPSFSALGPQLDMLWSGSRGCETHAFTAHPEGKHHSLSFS
Protocol: Compound inhibition of JAK was assayed by the method described by G. R. Brown, et al, Bioorg. Med. Chem. Lett. 2000, vol. 10, pp 575-579 in the following manner. Into Maxisorb plates, previously coated at 4° C. with Poly (Glu, Ala, Tyr) 6:3:1 then washed with phosphate buffered saline 0.05% and Tween-(PBST), was added 2 μM ATP, 5 mM MgCl2, and a solution of compound in DMSO. The reaction was started with JAK enzyme and the plates incubated for 60 minutes at 30° C. The plates were then washed with PBST, 100 μL HRP-Conjugated 4G10 antibody was added, and the plate incubated for 90 minutes at 30° C. The plate was again washed with PBST, 100 μL TMB solution is added, and the plates were incubated for another 30 minutes at 30° C. Sulfuric acid (100 μL of 1M) was added to stop the reaction and the plate is read at 450 nm to obtain the optical densities for analysis to determine Ki values.

T1 sequence (P12931 whole entry): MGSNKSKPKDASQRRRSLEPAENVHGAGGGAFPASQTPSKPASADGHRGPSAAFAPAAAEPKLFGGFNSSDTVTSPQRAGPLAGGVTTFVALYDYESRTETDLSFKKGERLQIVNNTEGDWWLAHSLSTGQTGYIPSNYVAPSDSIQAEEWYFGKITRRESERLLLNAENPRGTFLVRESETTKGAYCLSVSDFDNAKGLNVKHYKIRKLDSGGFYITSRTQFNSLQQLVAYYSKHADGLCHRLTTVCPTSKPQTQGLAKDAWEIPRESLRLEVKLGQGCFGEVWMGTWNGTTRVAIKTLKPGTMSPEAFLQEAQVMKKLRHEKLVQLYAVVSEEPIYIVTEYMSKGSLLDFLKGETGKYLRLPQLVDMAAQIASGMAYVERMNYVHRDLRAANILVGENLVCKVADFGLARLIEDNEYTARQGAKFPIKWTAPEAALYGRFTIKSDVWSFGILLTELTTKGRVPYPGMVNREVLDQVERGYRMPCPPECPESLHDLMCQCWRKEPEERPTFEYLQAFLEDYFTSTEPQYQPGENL
KDR, sequence (P35968 20-1356): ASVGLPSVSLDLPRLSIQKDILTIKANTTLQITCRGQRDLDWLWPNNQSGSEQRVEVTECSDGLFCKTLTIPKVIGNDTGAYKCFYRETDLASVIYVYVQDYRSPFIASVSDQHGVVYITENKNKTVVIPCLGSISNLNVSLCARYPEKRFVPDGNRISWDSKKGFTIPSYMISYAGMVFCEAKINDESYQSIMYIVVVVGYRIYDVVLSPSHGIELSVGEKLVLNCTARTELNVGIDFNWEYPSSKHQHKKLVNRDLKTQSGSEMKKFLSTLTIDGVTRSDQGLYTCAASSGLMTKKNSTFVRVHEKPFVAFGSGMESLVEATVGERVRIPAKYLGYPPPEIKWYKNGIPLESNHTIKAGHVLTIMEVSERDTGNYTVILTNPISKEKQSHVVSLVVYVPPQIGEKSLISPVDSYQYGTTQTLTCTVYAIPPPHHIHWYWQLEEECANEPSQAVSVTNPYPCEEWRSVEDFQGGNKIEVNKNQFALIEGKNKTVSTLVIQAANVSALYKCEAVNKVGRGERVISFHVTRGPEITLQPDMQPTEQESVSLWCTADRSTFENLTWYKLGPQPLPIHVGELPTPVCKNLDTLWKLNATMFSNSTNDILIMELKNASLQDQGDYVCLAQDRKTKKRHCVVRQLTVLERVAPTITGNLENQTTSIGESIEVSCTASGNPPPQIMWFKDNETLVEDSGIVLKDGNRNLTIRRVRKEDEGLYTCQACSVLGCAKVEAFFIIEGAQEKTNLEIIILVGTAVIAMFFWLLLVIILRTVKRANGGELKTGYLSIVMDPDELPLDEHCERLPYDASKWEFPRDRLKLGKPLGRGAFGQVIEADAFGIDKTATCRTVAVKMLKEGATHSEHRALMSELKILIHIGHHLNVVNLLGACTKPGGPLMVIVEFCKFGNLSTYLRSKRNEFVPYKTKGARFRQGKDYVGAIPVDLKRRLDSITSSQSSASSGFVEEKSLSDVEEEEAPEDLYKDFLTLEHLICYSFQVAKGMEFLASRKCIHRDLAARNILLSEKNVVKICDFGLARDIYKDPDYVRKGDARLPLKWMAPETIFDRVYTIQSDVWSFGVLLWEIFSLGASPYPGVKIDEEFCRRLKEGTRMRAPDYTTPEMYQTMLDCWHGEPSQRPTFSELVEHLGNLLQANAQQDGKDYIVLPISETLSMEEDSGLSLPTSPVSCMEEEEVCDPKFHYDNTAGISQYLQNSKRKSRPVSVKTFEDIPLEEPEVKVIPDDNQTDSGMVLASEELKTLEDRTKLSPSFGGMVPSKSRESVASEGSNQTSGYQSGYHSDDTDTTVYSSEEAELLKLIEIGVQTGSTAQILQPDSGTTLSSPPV

Row | Ki [1] [nM] | Ki [2] [nM] | Ki [3] [nM] | SMILES
1 | 500 to 1000 | 100 to 1000 | 10 to 1000 | CC(=O)N1[C@H](C)CN(c2cc(-n3cnc(Nc4ccc(NC(=O)OCC(C)C)cc4)n3)ccn2)C[C@@H]1C [Compound I-90]
2 | > 1000 | 100 to 1000 | > 1000 | c1ccc(-n2cnc(Nc3ccc(N4CCOCC4)nc3)n2)cc1 [Compound I-134]
3 | 500 to 1000 | < 100 | 10 to 1000 | CC1CCCN1c1cc(-n2cnc(Nc3ccccc3)n2)ccn1 (stereo not drawn) [Compound I-56]
4 | 500 to 1000 | 100 to 1000 | 10 to 1000 | CC(=O)N1[C@H](C)CN(c2cc(-n3cnc(Nc4ccc(NC(=O)OCC(C)(C)C)cc4)n3)ccn2)C[C@@H]1C [Compound I-91]
5 | < 500 | < 100 | < 10 | CC(=O)N1[C@H](C)CN(c2cc(-n3cnc(Nc4ccc(NC(=O)NC(C)C)cc4)n3)ccn2)C[C@@H]1C [Compound I-100]
6 | > 1000 | > 1000 | 10 to 1000 | CCCC(=O)N1CCCN(c2cc(-n3cnc(Nc4ccccc4)n3)ccn2)CC1 [Compound I-68]
7 | 500 to 1000 | 100 to 1000 | 10 to 1000 | CC(=O)N1[C@H](C)CN(c2cc(-n3cnc(Nc4ccc(NC(=O)NC(C)(C)C)cc4)n3)ccn2)C[C@@H]1C [Compound I-101]
8 | 500 to 1000 | 100 to 1000 | 10 to 1000 | CC(=O)N1[C@H](C)CN(c2cc(-n3cnc(Nc4ccc(NC(=O)N(C)C)cc4)n3)ccn2)C[C@@H]1C [Compound I-77, 3-(4-{1-[2-(4-Acetyl-3,5-dimethyl-piperazin-1-yl)-pyridin-4-yl]-1H-[1,2,4]triazol-3-ylamino}-phenyl)-1,1-dimethyl-urea]
9 | < 500 | 100 to 1000 | 10 to 1000 | CCCOC(=O)Nc1ccc(Nc2ncn(-c3ccnc(N4C[C@@H](C)N(C(C)=O)[C@@H](C)C4)c3)n2)cc1 [Compound I-88]
10 | > 1000 | > 1000 | > 1000 | CCN(CC)CCNc1cc(-n2cnc(Nc3ccccc3)n2)ccn1 [Compound I-60]
11 | < 500 | 100 to 1000 | 10 to 1000 | OC[C@H]1CCCN(c2cc(-n3cnc(Nc4ccccc4)n3)ccn2)C1 [Compound I-65]
12 | < 500 | < 100 | < 10 | CCNC(=O)Nc1ccc(Nc2ncn(-c3ccnc(N4C[C@@H](C)N(C(C)=O)[C@@H](C)C4)c3)n2)cc1 [Compound I-98, 1-(4-{1-[2-(4-Acetyl-3,5-dimethyl-piperazin-1-yl)-pyridin-4-yl]-1H-[1,2,4]triazol-3-ylamino}-phenyl)-3-ethyl-urea]
13 | > 1000 | > 1000 | > 1000 | c1ccc(-n2cnc(Nc3ccnc(NCCN4CCOCC4)c3)n2)cc1 [Compound I-107]
14 | 500 to 1000 | < 100 | < 10 | CC(=O)N1[C@H](C)CN(c2cc(-n3cnc(Nc4ccc(N5CCN(S(=O)(=O)c6ccc(C)cc6)CC5)cc4)n3)ccn2)C[C@@H]1C [Compound I-92]
15 | 500 to 1000 | 100 to 1000 | > 1000 | O=C(Nc1cc(-n2cnc(Nc3ccccc3)n2)ccn1)C1CCCCC1 [Compound I-93]
16 | 500 to 1000 | < 100 | 10 to 1000 | CC(C)CCN(C)c1cc(-n2cnc(Nc3ccccc3)n2)ccn1 [Compound I-62, methyl-(3-methyl-butyl)-[4-(3-phenylamino-[1,2,4]triazol-1-yl)-pyridin-2-yl]-amine]
17 | < 500 | < 100 | 10 to 1000 | COC(=O)Nc1ccc(Nc2ncn(-c3ccnc(N4C[C@@H](C)N(C(C)=O)[C@@H](C)C4)c3)n2)cc1 [Compound I-78]
18 | < 500 | < 100 | < 10 | CC(=O)N1[C@H](C)CN(c2cc(-n3cnc(Nc4ccc(NC(=O)C(F)(F)F)cc4)n3)ccn2)C[C@@H]1C [Compound I-79]
19 | < 500 | 100 to 1000 | > 1000 | O=C(Cc1ccccc1)Nc1cc(-n2cnc(Nc3ccccc3)n2)ccn1 [Compound I-96]
